Paper PMC7692337, “Masked Phenolic-Selenium Conjugates: Potent and Selective Antiproliferative Agents Overcoming P-gp Resistance” (Pharmaceuticals, 2020)
Like-named read-outs stand apart in the source and are kept apart here. Values belong to the molecule of their own block, whether it stands above or below them.

Legend:
[1] = tested on: SW1573 (non-small cell lung); test: Antiproliferative activity, NCI protocol; type: cell-based, human
Experimental: (§1) Organochalcogen derivatives prepared herein were evaluated in vitro as potential antiproliferative agents, using a panel of six human tumour cell lines: A549 (non-small cell lung), HBL-100 (breast), HeLa (cervix), SW1573 (non-small cell lung), as drug sensitive lines, T-47D (breast) and WiDr (colon) as drug resistant lines. In addition to precursors 2, 6, 7, 13, 14, 17, 19, ebselen and cisplatin (CDDP) were used as reference drugs. […] In both cases, the NCI protocol, with minor modifications, was followed; selected data, including the selectivity index (S.I.) can be found in Table 3 and full data in Supporting Information (Table S1).
(§2) The in vitro antiproliferative activity was assayed using minor modifications of the protocol of the National Cancer Institute (NCI) of the United States against the six human solid tumor cell and the non-tumor cell lines tested.

[2] = tested on: T-47D (breast); test: Antiproliferative activity, NCI protocol; type: cell-based, human; settings: for GI50: read-out: GI50 T-47D (Breast)
Experimental: as §1, §2

[3] = tested on: HBL-100 (breast); test: Antiproliferative activity, NCI protocol; type: cell-based, human
Experimental: as §1, §2

[4] = tested on: HeLa (cervix); test: Antiproliferative activity, NCI protocol; type: cell-based, human
Experimental: as §1, §2

[5] = tested on: A549 (non-small cell lung); test: Antiproliferative activity, NCI protocol; type: cell-based, human
Experimental: as §1, §2

[6] = tested on: WiDr (colon); test: Antiproliferative activity, NCI protocol; type: cell-based, human; settings: for GI50: read-out: GI50 WiDr (Colon)
Experimental: as §1, §2

[7] = H2O2 scavenging (phenol red / horseradish peroxidase); settings: At 50 µM
Experimental: (§3) In vitro antioxidant properties of key unprotected phenolic derivatives were analyzed using two different methodologies: free radical scavenging capacity, using the DPPH method (2,2-diphenyl-1-picrylhydrazyl), a HAT (hydrogen atom transfer) procedure, widely-used for both natural and synthetic derivatives, and also the capacity for scavenging H2O2, one of the most common ROS in degenerative diseases, including cancer.
Herein, following Bahorun’s methodology, in vitro levels of H2O2 were measured in an indirect fashion, by registering the H2O2-mediated oxidation of phenol red in the presence of horseradish peroxidase, to give a chromophore with a maximum absorption at 610 nm. Accordingly, in the presence of an antioxidant agent, there is an inverse correlation between the observed absorbance, and the scavenging properties. Table 2 depicts the H2O2-scavenging properties of compounds prepared herein, and tested at a final 50 µM concentration.
Reported methodology was used with minor modifications.

[8] = tested on: six human tumour cell lines (A549, HBL-100, HeLa, SW1573, T-47D, WiDr); test: Antiproliferative activity, panel of six human tumour cell lines; type: cell-based; settings: summary over the tested tumour cell lines, highest tested concentration 100 µM; for GI50: Homo sapiens, read-out: GI50 over the tumour cell lines (range, bound or words)
Experimental: as §1, §2

[9] = Free radical scavenging (DPPH method); settings: 30 min incubation, absorbance at 515 nm, read-out: EC50 antiradical activity (DPPH)
Experimental: as §3
DPPH is a commercially-available stable free radical commonly used for in vitro testing of radical scavenging properties of antioxidants.
Reported methodology was used with minor modifications. To a 60 µM methanolic DPPH solution (1.17 mL), the antioxidant solution (5–7 different solutions, 30 µL) or solvent (control, 30 µL) were added. After 30 min. of incubation in the dark, absorbance was measured at 515 nm, and EC50 values were calculated.

[10] = tested on: BJ-hTert (fibroblasts); test: Antiproliferative activity on non-tumour cells, NCI protocol; type: cell-based, human; settings: non-tumour cell line; for GI50: read-out: GI50 BJ-hTert (Fibroblasts)
Experimental: as §1, §2

[11] = tested on: SW1573/Pgp; test: P-glycoprotein assay, line overexpressing P-gp; type: cell-based, human; settings: ratio between GI50 values in SW1573/PGP and SW1573 cells; for Rf w Verapamil: with verapamil; for Rf w/o Verapamil: without verapamil
Experimental: (§4) This assay allows prediction of whether a certain chemotherapeutic agent could develop chemoresistance when behaving as a P-gp substrate, one of the most common efllux-pumps used for the extrusion of cell xenobiotics. For that purpose, a cell line-based assay was used, in particular the lung cancer cell line in its wild type (SW1573), and its variant overexpressing P-gp (Sw1573/Pgp). Moreover, compounds were tested in the presence and in the absence of verapamil, which is known to inhibit P-gp. Chemotherapeutic agents paclitaxel (PTX) and vinblastine (VB) are used herein as reference compounds. In this assay, the resistance factor (Rf) for a certain compound is defined as the ratio of GI50 in the cell line overexpressing P-gp and the wild one (Table 4), high values of Rf denoting that the compound behaves as a P-gp substrate, and thus, chemoresistance through this mechanism will probably take place.

[12] = P-glycoprotein assay, line overexpressing P-gp; type: cell-based, human; settings: human, 48 h exposure
Experimental: as §4

[13] = tested on: SW1573; test: P-glycoprotein assay, wild type line; type: cell-based; settings: Homo sapiens, 48 h exposure
Experimental: as §4

[14] = Homo sapiens, SW1573, Table S1, read-out: GI50 SW1573 (Lung)
[15] = Homo sapiens, T47D, drug resistant line
[16] = Homo sapiens, HBL-100; read-out: GI50 HBL-100 (Breast)
[17] = Homo sapiens, HeLa; read-out: GI50 HeLa (Cervix)
[18] = Homo sapiens, A549; read-out: GI50 A549 (Lung)
[19] = Homo sapiens, WiDr, drug resistant line
[20] = with verapamil (concentration not stated), with verapamil, read-out: GI50 SW1573/PGP w Verapamil
[21] = without verapamil, read-out: GI50 SW1573/PGP w/o Verapamil
[22] = with verapamil, read-out: GI50 SW153 w Verapamil
[23] = without verapamil, read-out: GI50 SW1573 w/o Verapamil
[24] = Table S1, read-out: GI50 SW1573 (Lung)
[25] = read-out: GI50 HBL-100 (Breast)

GI50 over the tumour cell lines (range, bound or words) [8]: negligible activities
EC50 [9]: 15.3 ± 0.1 µM
Molecule: O=C(CCCSSCCCC(=O)NCCc1ccc(O)c(O)c1)NCCc1ccc(O)c(O)c1 [Compound 10]
GI50 [1, 14]: > 100 µM
GI50 [2, 15]: > 100 µM
GI50 [3, 16]: > 100 µM
GI50 [4, 17]: > 100 µM
GI50 [5, 18]: > 100 µM
GI50 [6, 19]: > 100 µM
% Scavenging of H2O2 [7]: 11.8 ± 0.5%

Molecule: N#C[Se]Cc1ccc2c(c1)OCO2 [Compound 35, (3′,4′-Methylenedioxyphenyl)methyl selenocyanate]
GI50 [1, 14]: 4.4 ± 0.5 µM
GI50 [2, 15]: 3.4 ± 0.2 µM
GI50 [3, 16]: 3.5 ± 1.4 µM
GI50 [4, 17]: 3.5 ± 0.8 µM
GI50 [5, 18]: 3.1 ± 0.7 µM
GI50 [6, 19]: 2 ± 0.1 µM
GI50 ([10]; Homo sapiens, Fibroblast): 8.7 ± 3.2 µM
Rf w Verapamil [11]: 2.3
Rf w/o Verapamil [11]: 3.1
GI50 at 48 h [12, 20]: 7 ± 0.6 µM
GI50 at 48 h [12, 21]: 7.1 ± 0.6 µM
GI50 [13, 22]: 3.1 ± 1 µM
GI50 [13, 23]: 2.3 ± 0.5 µM
GI50 over the tumour cell lines (range, bound or words) [8]: low micromolar‒submicromolar activities

Molecule: O=C(CCC[Se][Se]CCCC(=O)NCCc1ccc(O)c(O)c1)NCCc1ccc(O)c(O)c1 [Compound 16, 4,4′-Diselenobis{N-[2′’-(3′’’,4′’’-dihydroxyphenyl)ethyl]butanamide}]
GI50 [1, 14]: 3 ± 0.2 µM
GI50 [2, 15]: 5.8 ± 0.9 µM
GI50 [3, 16]: 2.4 ± 0.6 µM
GI50 [4, 17]: 2.3 ± 0.4 µM
GI50 [5, 18]: 3.7 ± 0.6 µM
GI50 [6, 19]: 3.9 ± 0.6 µM
GI50 ([10]; Homo sapiens, Fibroblast): 3.5 ± 0.6 µM
Rf w Verapamil [11]: 2.2
Rf w/o Verapamil [11]: 1.9
GI50 at 48 h [12, 20]: 5.1 ± 0.4 µM
GI50 at 48 h [12, 21]: 5.1 ± 0.6 µM
GI50 [13, 22]: 2.3 ± 0.3 µM
GI50 [13, 23]: 2.7 ± 0.3 µM
GI50 [8]: < 6 µM
EC50 [9]: 9.3 ± 1.3 µM

Molecule: N#C[Se]CCCc1ccc2c(c1)OCO2 [Compound 37, 3-(3’,4’-Methylenedioxyphenyl)propyl selenocyanate]
GI50 T-47D (Breast) ([2]; drug resistant line): Not soluble
GI50 HBL-100 (Breast) [3]: Not soluble
GI50 HeLa (Cervix) [4]: Not soluble
GI50 A549 (Lung) [5]: Not soluble
GI50 WiDr (Colon) ([6]; drug resistant line): Not soluble
GI50 BJ-hTert (Fibroblasts) [10]: Not soluble

Molecule: N#C[Se]CCCC(=O)NCCc1ccc2c(c1)OCO2 [Compound 45, N-[2′-(3′,4′-Methylenedioxyphenyl)ethyl]-4-selenocyanatobutanamide]
GI50 [1, 14]: 0.81 ± 0.02 µM
GI50 [2, 15]: 0.4 ± 0.04 µM
GI50 [3, 16]: 1.6 ± 0.3 µM
GI50 [4, 17]: 0.36 ± 0.09 µM
GI50 [5, 18]: 0.41 ± 0.03 µM
GI50 [6, 19]: 0.41 ± 0.03 µM
GI50 ([10]; Homo sapiens, Fibroblast): 1.8 ± 0.7 µM
Rf w Verapamil [11]: 2.3
Rf w/o Verapamil [11]: 3.1
GI50 at 48 h [12, 20]: 2.5 ± 0.1 µM
GI50 at 48 h [12, 21]: 3.3 ± 0.6 µM
GI50 [13, 22]: 1.1 ± 0.1 µM
GI50 [13, 23]: 1.1 ± 0.2 µM
GI50 [8]: 0.36 to 1.6 µM

Molecule: N#C[Se]CCC(=O)NCCc1ccc(O)c(O)c1 [Compound 20, N-[2′-(3′’,4′’-Dihydroxyphenyl)ethyl]-3-selenocyanatopropanamide]
GI50 ([1]; Homo sapiens, SW1573, read-out: GI50 SW1573 (Lung)): 24 ± 8 µM
GI50 ([2]; Homo sapiens, T47D): 35 ± 1 µM
GI50 ([3]; Homo sapiens, HBL-100, read-out: GI50 HBL-100 (Breast)): 37 ± 2 µM
GI50 ([4]; Homo sapiens, HeLa, read-out: GI50 HeLa (Cervix)): 19 ± 8 µM
GI50 ([5]; Homo sapiens, A549, read-out: GI50 A549 (Lung)): 28 ± 8 µM
GI50 ([6]; Homo sapiens, WiDr): 41 ± 10 µM
% Scavenging of H2O2 [7]: 25.8 ± 1.0%
GI50 over the tumour cell lines (range, bound or words) [8]: moderate antiproliferative properties
EC50 [9]: 10.8 ± 0.4 µM

Molecule: c1cc2c(cc1CC[Se][Se]CCc1ccc3c(c1)OCO3)OCO2 [Compound 40, Bis[2-(3′,4′-methylenedioxyphenyl)ethyl]diselenide]
GI50 [1, 14]: 2.7 ± 0.3 µM
GI50 [2, 15]: 0.88 ± 0.17 µM
GI50 [3, 16]: 2 ± 0.9 µM
GI50 [4, 17]: 0.95 ± 0.07 µM
GI50 [5, 18]: 1.6 ± 0.5 µM
GI50 [6, 19]: 1.2 ± 0.1 µM
GI50 ([10]; Homo sapiens, Fibroblast): 28 ± 5 µM
Rf w Verapamil [11]: 2.5
Rf w/o Verapamil [11]: 2.0
GI50 at 48 h [12, 20]: 4.5 ± 1 µM
GI50 at 48 h [12, 21]: 3.9 ± 0.2 µM
GI50 [13, 22]: 1.8 ± 0.2 µM
GI50 [13, 23]: 1.9 ± 0.1 µM
GI50 over the tumour cell lines (range, bound or words) [8]: low micromolar‒submicromolar activities

GI50 over the tumour cell lines (range, bound or words) [8]: negligible activities
EC50 [9]: 12.3 ± 0.5 µM
Molecule: O=C(CSSCC(=O)NCCc1ccc(O)c(O)c1)NCCc1ccc(O)c(O)c1 [Compound 8, 2,2′-Dithiobis{N-[2′’-(3′’’,4′’’-dihydroxyphenyl)ethyl]acetamide}]
GI50 [1, 14]: > 100 µM
GI50 [2, 15]: > 100 µM
GI50 [3, 16]: > 100 µM
GI50 [4, 17]: > 100 µM
GI50 [5, 18]: > 100 µM
GI50 [6, 19]: > 100 µM
% Scavenging of H2O2 [7]: 26.5 ± 2.1%

Molecule: [NH2][Pt]([NH2])([Cl])[Cl] [CDDP, cisplatin, reference compound]
GI50 [1, 24]: 3.4 ± 0.7 µM
GI50 ([2]; drug resistant line): 15 ± 2 µM
GI50 [3, 25]: 1.9 ± 0.2 µM
GI50 ([4]; read-out: GI50 HeLa (Cervix)): 2 ± 0.3 µM
GI50 ([5]; read-out: GI50 A549 (Lung)): 4.9 ± 0.2 µM
GI50 ([6]; drug resistant line): 26 ± 6 µM
GI50 [10]: 14 ± 2 µM

Molecule: N-[2′-(3′’,4′’-Dihydroxyphenyl)ethyl]-3-phenylselenopropanamide [Compound 18]
GI50 [1, 24]: 28 ± 4 µM
GI50 ([2]; drug resistant line): 71 ± 5 µM
GI50 [3, 25]: 34 ± 1 µM
GI50 ([4]; read-out: GI50 HeLa (Cervix)): 23 ± 1 µM
GI50 ([5]; read-out: GI50 A549 (Lung)): 33 ± 5 µM
GI50 ([6]; drug resistant line): 85 ± 21 µM
% Scavenging of H2O2 [7]: 19.0 ± 0.8%
GI50 over the tumour cell lines (range, bound or words) [8]: moderate antiproliferative properties
EC50 [9]: 23.2 ± 0.6 µM

Molecule: N#C[Se]CCc1ccc2c(c1)OCO2 [Compound 36, 2-(3′,4′-Methylendioxyphenyl)ethyl selenocyanate]
GI50 [1, 14]: 3.8 ± 0.1 µM
GI50 [2, 15]: 1.1 ± 0.3 µM
GI50 [3, 16]: 2.1 ± 0.2 µM
GI50 [4, 17]: 1.2 ± 0.2 µM
GI50 [5, 18]: 1.8 ± 0.7 µM
GI50 [6, 19]: 1.3 ± 0.6 µM
GI50 ([10]; Homo sapiens, Fibroblast): 14 ± 2 µM
Rf w Verapamil [11]: 1.7
Rf w/o Verapamil [11]: 1.6
GI50 at 48 h [12, 20]: 5.3 ± 0.6 µM
GI50 at 48 h [12, 21]: 6.8 ± 0.4 µM
GI50 [13, 22]: 3.1 ± 0.4 µM
GI50 [13, 23]: 4.2 ± 0.7 µM
GI50 over the tumour cell lines (range, bound or words) [8]: low micromolar‒submicromolar activities
